Results taken from US8629242B2, “Methods of inhibiting calcineurin with ApoE analogs” (Cognosci, Inc., priority 2007, dated 2014).
Where a SMILES comes first, the peptide text is derived from it. [ ]: non-standard residue; d: D form. Aib = CC(C)(N)C(=O)O

Experiments:
[1] = tested on: macrophage cell line U937; experiment: Superoxide release in PMA+LPS-treated U937 macrophages; type: cell-based, human; details: 10 μM, IFN-γ-differentiated cells
Method: (§1) FIG. 16. ApoE analogs suppress the release of nitric oxide (A) and TNF-α (B) in LPS-treated BV2 microglia cells. Series concentrations of ApoE analogs were added to culture medium together with LPS (10 ng/ml). 24 hours later, culture medium was collected for measurement of NO by Griess assay or TNF-α by ELISA. (C) ApoE analogs inhibit superoxide formation in PMA+LPS-treated human macrophage cell line U937. ApoE analogs (10 μM) were added to the cell medium of human macrophage U937 5 minutes prior to PMA+LPS treatment. The release of superoxide in culture medium was measured by Luminol assay kit (Calbiochem).
To determine the anti-oxidant effect of the different ApoE analogs, the human macrophage cell line U937 was differentiated with IFN-γ (40 U/ml) for 4 days and treated with phorbol-12-myristate-13-acetate (PMA) and LPS with or without ApoE analogs (10 μM). The release of superoxide in the medium was measured by Luminol Superoxide Assay kit (Calbiochem, CA).

microglia cell line BV2 = experiment: LPS-induced NO and TNF-α release in BV2 microglia; type: cell-based, murine; details: LPS 10 ng/ml, 24 hours
Method: as §1, with “ApoE analogs suppress the release of nitric oxide (A) and TNF-α (B) in LPS-treated BV2 microglia cells.” left out, “(C) ApoE analogs inhibit superoxide formation in PMA+LPS-treated human macrophage cell line U937.” left out
The murine microglia cell line BV2 was used as the first screening platform to compare the potency of ApoE analogs in anti-inflammatory activity. In response to LPS, BV2 produces amounts of reactive radical NO and inflammatory cytokines, such as TNF-α and IL-6. We stimulated the cells with LPS (10 ng/ml) in the presence of several concentrations of each of the ApoE analogs. We measured NO in medium by Griess assay and TNF-α by ELISA 24 hours after LPS stimulation of the cells. The IC50 value was calculated for each of the ApoE analogs.

[2] = tested on: myelin oligodendrocyte glycoprotein (MOG)-induced experimental autoimmune encephalomyelitis (EAE) model; experiment: MOG-induced EAE model of multiple sclerosis, treatment after disease onset; type: in vivo, C57BL/6J mice; details: for maximal severity of disability / progress of the disease (clinical score) / mice exhibiting complete remission: 1 mg/kg i.p. daily from first CS≥2; for burden of disability (area under curve of clinical score): 1 mg/kg i.p., data not shown; for demyelination and infiltration of peripheral mononuclear cells in spinal cord: Luxol Fast Blue and eosin staining; for mice exhibiting complete remission: dpi 35, saline control 22%
Method: FIG. 1. […] (B) Percentage of animals in remission. Statistical analysis was conducted by ANOVA comparing the CS after day 18, which was defined as the recovery phase. FIG. 2. Representative histopathology of EAE in mice treated with COG 112 or saline control. 5 μm thick sections were stained with Luxol fast blue and eosin to reveal demyelination and peripheral infiltrates. The left panels show the pathological changes in spinal cord from cervical (A), thoracic (B) and lumbar (C) segments of a saline-treated control animal. Demyelination is shown as loss of blue staining in white matter and peripheral infiltrates are stained with purple particles. Panels D, E and F show the corresponding segments of a COG 112-treated animal where no obvious demyelination is observed. The boxed-insets of panel A and D are magnified 10× in panel G and H, respectively. FIG. 3. Profiling and quantification of T cell subset infiltrates in the spinal cords of animals on 21 days post-immunization that were treated with or without COG 112. Single-cell suspensions of spinal cord were stained with anti-CD3, CD4, and CD8 mAbs. Frequency of CD3+CD45+ cytometry (T cell) is represented in control (A) and COG112-treated (C) animals. Frequency of CD4+ and CD8+ T cells is represented in saline control (B) and COG 112-treated (D) mice. Total cell number for each of the specific cell surface markers is calculated and expressed as number per spinal cord (E). […] C57BL/6J mice were first immunized with MOG to create an EAE model. […] One of the pathological hallmarks of MS is extensive demyelination of the myelin sheath surrounding neurons accompanied by massive infiltration of peripheral leukocytes into the brain and the spinal cord, all of which contribute to the clinical manifestations of neurological disability. We further examined the effects of COG peptides on demyelination and leukocyte-influx into the spinal cords by Luxol Fast Blue (LFB) and Eosin staining. […] Panel G is a magnified view of the boxed area in A. […] Single-cell suspensions of spinal cord were stained with anti-CD3, CD4, and CD8 mAbs. As shown in FIGS. 3A & C, the frequency of CD3+ T cells in the spinal cords of mice treated with COG 112 was reduced as compared to vehicle controls on dpi 21.

calcineurin (PP2B) = biological target: T1, calcineurin (PP2B) (Homo sapiens, UniProt Q08209); experiment: Immunoprecipitation with biotin-COG 133 conjugate, blot probed for calcineurin; type: binding; details: human brain lysate or primary glial culture; biotin-COG 133 bead conjugate
T1 construct: from tissue; host or cells: human brain lysate
Method: FIG. 14. ApoE analogs bind directly to calcineurin and inhibit its activity. […] (B) Immunoprecipitation of human brain lysate with a biotin-COG 133 conjugate. Lane 1=markers; lane 2=clear bead; lane 3=biotin-COG 133 bead conjugate; and lane 4=10 μg lysate. (C) Immunoprecipitation of different glial cultures with a biotin-COG 133 conjugate. Lane 1=markers; lane 2=astrocyte; lane 3=microglia; and lane 4=oligodendrocyte precursor cells (OPC). Blots in B and C were probed for calcineurin (PP2B).
Calcineurin activity was measured in a cell-free in vitro assay in the presence of various concentrations of COG 133 (SEQ ID NO: 1), COG 112 (SEQ ID NO: 5), COG 68 (SEQ ID NO: 7), COG 125 (Ac-AS(Aib)LRKL(Aib)KR—COOH; SEQ ID NO: 8), or antennapedia (antp), the prefix peptide for COG 112. […] Using a BioMol Calcineurin Phosphatase Activity Kit (Cat. #AK-804), the assay was conducted according to manufacturer's instructions. […] This inhibition of calcineurin activity by ApoE analogs is mediated by a direct interaction of the ApoE analog with the phosphatase.

Molecule	superoxide release [1]	activity in suppression of microglia activation (NO by Griess assay, TNF-α by ELISA) (microglia cell line BV2)	maximal severity of disability [2]	progress of the disease (clinical score) [2]	burden of disability (area under curve of clinical score) [2]	demyelination and infiltration of peripheral mononuclear cells in spinal cord [2]	CD4+ T cell infiltration into the spinal cord ([2]; dpi 21, vs vehicle)	frequency of CD3+ T cells in the spinal cord ([2]; dpi 21, vs vehicle)	number of CD8+ T cells in the spinal cord ([2]; dpi 21, vs vehicle)	mice exhibiting complete remission [2] [%]	binding of calcineurin (PP2B) in immunoprecipitates (calcineurin (PP2B))
Ac-RQIKIWFQNRRMKWKKCLRVRLASHLRKLRKRLL-NH2 [COG 112]	significantly inhibited superoxide release	clearly superior to that of COG 133	significantly reduced the maximal severity of disability	significantly slowed the deleterious progress of the disease	significantly reduced the burden of disability	greatly reduced	significantly reduced	reduced	no significant difference	71	–
CC(=O)NC(=N)NCCC[C@H](NC(=O)[C@H](CCCCN)NC(=O)[C@H](CCCNC(=N)N)NC(=O)[C@H](CC(C)C)NC(=O)[C@H](CCCCN)NC(=O)[C@H](CCCNC(=N)N)NC(=O)[C@H](CC(C)C)NC(=O)C(C)(C)NC(=O)[C@H](CO)NC(=O)[C@H](C)NC(=O)[C@H](CC(C)C)NC(=O)[C@H](CCCNC(=N)N)NC(=O)[C@@H](NC(=O)[C@H](CCCNC(=N)N)NC(=O)[C@H](CC(C)C)NC(C)=O)C(C)C)C(=O)N[C@@H](CC(C)C)C(=O)N[C@@H](CC(C)C)C(N)=O [COG 345, acetyl-LRVRLAS-Aib-LRKLRK(acetyl-Arg)LL-amide] (Ac-LRVRLAS[Aib]LRKLRKR(Ac)LL-NH2)	significantly inhibited superoxide release	clearly superior to that of COG 133	–	–	–	–	–	–	–	–	–
CC(=O)N[C@@H](CC(C)C)C(=O)N[C@@H](CCCNC(=N)N)C(=O)N[C@H](C(=O)N[C@@H](CCCNC(=N)N)C(=O)N[C@@H](CC(C)C)C(=O)N[C@@H](C)C(=O)N[C@@H](CO)C(=O)N[C@@H](Cc1c[nH]cn1)C(=O)N[C@@H](CC(C)C)C(=O)N[C@@H](CCCNC(=N)N)C(=O)N[C@@H](CCCCN)C(=O)N[C@@H](CC(C)C)C(=O)N[C@@H](CCCNC(=N)N)C(=O)N[C@@H](CCCCN)C(=O)N[C@@H](CCCNC(=N)N)C(=O)N[C@@H](CC(C)C)C(=O)N[C@@H](CC(C)C)C(N)=O)C(C)C [COG 133]	–	–	significantly reduced the maximal severity of disability	significantly slowed the deleterious progress of the disease	significantly reduced the burden of disability	greatly reduced	–	–	–	50	bound
